Data: ChEMBL document CHEMBL3301546, “MMV Malaria Box yeast growth screening”

Columns and labels:
Format in all cases: functional
Saccharomyces cerevisiae [1] = assay: (§1) MMV: Growth assays were conducted using the prototrophic S. cerevisiae strain JHY222. Each MMV compound (0.1 mM) was tested in rich media containing dextrose as a carbon source (Yeast Extract, Peptone, Dextrose; YPD). The growth rate in the presence of each MMV compound was calculated as follows: (i) the first 10 OD readings were averaged and subtracted from all OD readings of the corresponding curve to set the baseline of the growth curve to zero, and (ii) the area under the curve (AUC) was then calculated as the sum of all OD readings. […] A relative growth value was calculated as follows: AUC(DRUG) - AUC(DMSO)/AUC(DMSO); where AUC(DMSO) represents growth measured in a DMSO control well that was on the same microtiter plate of the drug-treated culture.
Saccharomyces cerevisiae [2] = assay: as §1, with “minimal” for “rich”, “ethanol and glycerol” for “dextrose”, “as” for “as a”, “sources” for “source”, “Nitrogen Base, Ethanol, Glycerol; YNBEG).” for “Extract, Peptone, Dextrose; YPD).”
Saccharomyces cerevisiae [3] = assay: as §1, with “minimal” for “rich”, “Nitrogen Base,” for “Extract, Peptone,”, “YNBD).” for “YPD).”

| Compound | Relative Growth (Saccharomyces cerevisiae [1]) | Relative Growth (Saccharomyces cerevisiae [2]) | Relative Growth (Saccharomyces cerevisiae [3]) |
| --- | --- | --- | --- |
| c1ccc(/C2=N/c3ccccc3/N=C(/c3ccccc3)c3ccccc32)cc1 | -0.0437 | -0.1082 | -0.0429 |
| Oc1ccccc1CN1CCC2(CCCN(Cc3ccccc3F)C2)C1 (configuration not stated) | -0.0746 | -0.309 | -0.0494 |
| CCOC(=O)C1=C(C)N=c2sc(=Cc3ccccc3O)c(=O)n2C1c1ccc(OC)c2ccccc12 (configuration not stated) | -0.9923 | 0.0525 | 0.0217 |
| Cc1ccc(-c2cc(C(=O)Nc3ccc(S(=O)(=O)N4CCCCC4)cc3)[nH]n2)c(O)c1 | -0.07 | -0.0163 | -0.0309 |
| CCOC(=O)C1=C(C)N=c2sc(=Cc3cc(Cl)ccc3O)c(=O)n2C1c1ccc(OC)cc1 (configuration not stated) | -0.1268 | 0.0816 | 0.1077 |
| FC(F)(F)c1cccc(Nc2nc3ccccc3nc2Nc2cccc(C(F)(F)F)c2)c1 | -0.0449 | -0.1177 | -0.0009 |
| c1ccc(-c2ccc(-c3nc4ccccc4[nH]3)cc2)cc1 | -0.0154 | 0.0562 | -0.0469 |
| COc1ccc(CN2CCCC(C(=O)c3ccc(C(F)(F)F)cc3)C2)c(O)c1 (configuration not stated) | -0.2476 | -0.9168 | -0.4404 |
| COc1cccc(NC(=O)Cn2c(C)c(C#N)c3ccccc32)c1 | -0.9399 | -1.0064 | -1.0078 |
| Cn1c(=O)c2cc(C(=O)NCCCN3CCCCCC3)sc2c2ccccc21 | -0.0314 | 0.0018 | -0.1099 |
| O=C(NC1CCCCC1)C(c1cccs1)N(CCc1ccccc1)C(=O)c1ccco1 (configuration not stated) | -0.0109 | -0.2518 | -0.1735 |
| COc1ccc(C(=O)NC(c2ccc(Cl)cc2Cl)c2cc(Cl)c3cccnc3c2O)cc1 (configuration not stated) | 0.0373 | -0.3135 | -0.2517 |
| COc1ccc(CNC2CCN(c3ccc(NC(=O)c4cccc(Cl)c4)cc3)CC2)cc1OC | -0.0405 | -0.0282 | 0.0343 |
| FC(F)(F)c1cccc(CNC2CCN(CCc3ccccc3)CC2)c1 | -0.0003 | -0.3142 | -0.0056 |
| COc1ccc(C2NCCc3c2[nH]c2ccccc32)cc1CN1CCN(c2ccc(F)cc2)CC1.Cl (configuration not stated) | -0.0229 | -0.0259 | 0.0397 |
| O=C(Nc1ccc(Cl)cc1)N1CCN(c2ccc3nncn3n2)CC1 | 0.0021 | 0.053 | -0.0344 |
| COc1ccc(C2C(C(=O)Nc3cccc(OC)c3)c3ccccc3C(=O)N2C2CCCCC2)cc1 (configuration not stated) | -0.0663 | -0.1595 | 0.0321 |
| CCN(CC)c1ccc(NC(=O)c2cccs2)cc1 | -0.0445 | -0.4168 | -0.1938 |
| CCOC(=O)c1cnc2ccc(Cl)cc2c1NCCCN(C)C | 0.0203 | -0.0264 | 0.0022 |
| CCCCNCC(O)(c1ccc(Cl)cc1)c1ccc(Cl)cc1 | 0.0298 | -0.1782 | -0.2198 |
| c1ccc2c(NCCc3c[nH]c4ccccc34)c3ccccc3nc2c1 | -0.7261 | -0.0957 | -0.0449 |
| CCCC(c1nnnn1C1CCCCC1)N1CCN(C(=O)c2ccco2)CC1.Cl (configuration not stated) | -0.0604 | 0.0167 | 0.0714 |

| Compound | Relative Growth (Saccharomyces cerevisiae [1]) | Relative Growth (Saccharomyces cerevisiae [2]) | Relative Growth (Saccharomyces cerevisiae [3]) |
| --- | --- | --- | --- |
| O=C1c2ccccc2C2=Nc3ccccc3SC(c3cccc(F)c3)C12 (configuration not stated) | 0.0574 | -0.2808 | -0.0716 |
| CCOC(=O)c1cnc2c(C)cccc2c1Nc1ccc(C(C)=O)cc1 | -0.0046 | -0.0453 | -0.0028 |
| COc1ccc(-c2nonc2NC(=O)c2cccc(C)c2)cc1OC | -0.0571 | -0.0764 | 0.0614 |
| Cc1ccc(-c2nc3ccccc3o2)cc1NCc1cc(Cc2ccccc2)ccc1O | -0.0705 | -0.1416 | 0.0201 |
| Cc1ccc(Cn2c(N3CCC(C(=O)NCc4cccs4)CC3)nc3ccccc32)cc1 | -0.105 | -0.1621 | -0.0044 |
| CC(C)(C)c1ccc(C(=O)Nc2nc3ccccc3s2)cc1 | -0.132 | -0.4045 | -0.0029 |
| COc1ccccc1CNC(=O)C1c2ccccc2C(=O)N(CC(C)C)C1c1cccs1 (configuration not stated) | -0.1327 | -0.0424 | -0.0764 |
| COc1ccc(C(O)(CCC(C)C)C(CN2CCOCC2)c2ccc(Cl)cc2)cc1.Cl (configuration not stated) | -0.0809 | -0.1228 | -0.0398 |
| CCCCC(O)(c1ccc(Cl)cc1)C(CN1CCOCC1)c1ccc(Cl)cc1.Cl (configuration not stated) | 0.0402 | -0.0844 | -0.1088 |
| COc1ccc(OC)c(C2C3=C(CC(C)(C)CC3=O)N(c3ccc(Cl)c(Cl)c3)C3=C2C(=O)CC(C)(C)C3)c1 | -0.0143 | -0.1129 | -0.0153 |
| Cc1cccc(N2C(=O)C3C(C2=O)C2(c4ccccc4)C(=O)C3(c3ccccc3)C(c3ccc4c(c3)OCO4)=C2c2ccc3c(c2)OCO3)c1 (configuration not stated) | -0.0089 | -0.1627 | -0.0077 |
| CCCc1c(C)nc2ccc(Br)cc2c1O | 0.0054 | -0.1859 | -0.0231 |
| COc1ccc(CCNC(=O)c2cc(S(=O)(=O)N3CC(C)CC(C)C3)ccc2Sc2ccc(F)cc2)cc1OC (configuration not stated) | -0.1625 | -0.0984 | -0.1001 |
| Cc1ccc(F)cc1NC(=O)c1cc(Cl)ccc1Nc1ccccc1 | -0.0355 | 0.1227 | -0.0972 |
| CCCc1c(C)nc2ccccc2c1O | -0.0347 | -0.1372 | -0.1078 |
| CC1=C(CC(=O)c2cccc([N+](=O)[O-])c2)C(=O)c2ccccc2C1=O | -0.9318 | -1.022 | -1.0109 |
| OC1CCCCC1C1(NC(=S)Nc2ccccc2)CCCCC1 (configuration not stated) | 0.0255 | 0.0032 | -0.1203 |
| CCCCCCC(O)(c1ccc(F)cc1)C(CN1CCOCC1)c1ccccc1.Cl (configuration not stated) | -0.0019 | -0.0435 | -0.1565 |
| CCOc1c(Br)cc(C2C(C(=O)OC)=CN(C)C=C2C(=O)OC)cc1OC | -0.0344 | -0.0572 | 0.0663 |
| COc1ccc(C(=O)C2CC2c2ccc(Cl)cc2)cc1 (configuration not stated) | -0.0484 | -0.181 | -0.0877 |
| CCCCCn1c(=N)n(CC(O)COc2cccc(C)c2)c2ccccc21.Cl (configuration not stated) | 0.0144 | -0.7976 | -0.2633 |
| CCN(CC)CCCNc1nc(-c2ccc(Cl)cc2)nc2ccccc12 | -0.029 | -0.0397 | 0.0809 |
